# Experimental data reported in patent US10947188B2, “Small molecule ferroptosis inducers” (THE TRUSTEES OF COLUMBIA UNIVERSITY IN THE CITY OF NEW YORK, priority 2016, dated 2021).
# Assays:
# HT-1080 = assay: Modulatory profiling: Alamar Blue viability, lethal compound cotreated with death modulator (EC50, AUC); assay type: cell-based; set-up: AUC, modulator HT.3MA / AUC, modulator HT.ALLN / AUC HT.ATA / AUC HT.ActD / AUC HT.BHA / AUC HT.BHT / AUC HT.BocD / AUC HT.CHX / AUC HT.Co2+ / AUC HT.DPQ / AUC HT.EGTA / AUC HT.Lmim / AUC HT.NAD+ / AUC HT.Nec-1 / AUC HT.SP600125 / AUC HT.TLCK / AUC HT.U0126: unit not given beside the values; conditions: for AUC HT.ATA: HT-1080, modulator ATA; for AUC HT.ActD: HT-1080, modulator ActD; for AUC HT.BHA: HT-1080, modulator BHA; for AUC HT.BHT: HT-1080, modulator BHT; for AUC HT.BocD: HT-1080, modulator BocD; for AUC HT.CHX: HT-1080, modulator CHX; for AUC HT.Co2+: HT-1080, modulator Co2+; for AUC HT.CspA: HT-1080, modulator CspA; for AUC HT.DPQ: HT-1080, modulator DPQ; for AUC HT.EGTA: HT-1080, modulator EGTA; for AUC HT.Gd3+: HT-1080, modulator Gd3+; for AUC HT.LNAME: HT-1080, modulator LNAME; for AUC HT.Lmim: HT-1080, modulator Lmim; for AUC HT.NAD+: HT-1080, modulator NAD+; for AUC HT.NMMA: HT-1080, modulator NMMA; for HT.atoc (AUC) / HT.bCarotene (AUC) / HT.deferox (AUC) / HT.digoxin (AUC) / HT.trolox (AUC) / HT.zVAD (AUC): HT-1080; for HT.atoc (AUC): modulator atoc; for HT.bCarotene (AUC): modulator bCarotene; for HT.deferox (AUC): modulator deferox; for HT.digoxin (AUC): modulator digoxin; for HT.trolox (AUC): modulator trolox; for HT.zVAD (AUC): modulator zVAD; for effect of cobalt (II) on lethality: modulatory profiles, CoCl2 supplementation
# BJeLR = assay: as above; assay type: cell-based, human; set-up: AUC, modulator BJ.Gd3+ / AUC, modulator BJ.LNAME / AUC, modulator BJ.Lmin / AUC, modulator BJ.3MA / AUC, modulator BJ.ALLN / AUC, modulator BJ.Boc D / AUC, modulator BJ.CHX / AUC, modulator BJ.Co2+ / AUC, modulator BJ.Nec-1 / AUC, modulator BJ.Pepstatin / AUC, modulator BJ.TLCK / AUC, modulator BJ.atoc / AUC, modulator BJ.trolox / AUC, modulator BJ.zVAD: unit not given beside the values; conditions: BJeLR cells, modulatory profile value (AUC); for AUC, modulator BJ.3MA: lethal compound cotreated with modulator 3MA; for AUC, modulator BJ.ALLN: lethal compound cotreated with modulator ALLN; for AUC, modulator BJ.Boc D: lethal compound cotreated with modulator Boc D; for AUC, modulator BJ.CHX: lethal compound cotreated with modulator CHX; for AUC, modulator BJ.Co2+: lethal compound cotreated with modulator Co2+; for AUC, modulator BJ.DPQ: lethal compound cotreated with modulator DPQ; for AUC, modulator BJ.Gd3+: lethal compound cotreated with modulator Gd3+; for AUC, modulator BJ.LNAME: lethal compound cotreated with modulator LNAME; for AUC, modulator BJ.Lmin/NAD+: lethal compound cotreated with modulator Lmin/NAD+; for AUC, modulator BJ.Lmin: lethal compound cotreated with modulator Lmin; for AUC, modulator BJ.NAD+: lethal compound cotreated with modulator NAD+; for AUC, modulator BJ.NMMA: lethal compound cotreated with modulator NMMA; for AUC, modulator BJ.Nec-1: lethal compound cotreated with modulator Nec-1; for AUC, modulator BJ.Pepstatin: lethal compound cotreated with modulator Pepstatin; for AUC, modulator BJ.TLCK: lethal compound cotreated with modulator TLCK
# [1] = Cobalt (II) binding assay in vitro (absorbance spectrum); conditions: absorbance 300-700 nm
# Experimental: For each cluster I compound (CIL13, −52, and −64), prepared two-fold dilution series with DMSO. We added 30 μL per well of either water or 10 μM cobalt (II) chloride solution to each well of a 384-well plate. Dilution series of each compound in DMSO were added by 10 μL per well. After solutions had been mixed by shaking of the plate using a Victor 3 plate reader (PerkinElmer), absorbance was scanned between 300 and 700 nm for each compound. Finally the following Absorbance value for each compound was plotted (see FIG. 9B):
# [formula] where Abs is the absorbance at each wavelength. Search of Commercially Available Structural Analogs of CIL41/70.
Compound,AUC HT.ATA (HT-1080),AUC HT.ActD (HT-1080),AUC HT.BHA (HT-1080),AUC HT.BHT (HT-1080),AUC HT.BocD (HT-1080),AUC HT.CHX (HT-1080),AUC HT.Co2+ (HT-1080),AUC HT.CspA (HT-1080),AUC HT.DPQ (HT-1080),AUC HT.EGTA (HT-1080),AUC HT.Gd3+ (HT-1080),AUC HT.LNAME (HT-1080),AUC HT.Lmim (HT-1080),AUC HT.NAD+ (HT-1080),AUC HT.NMMA (HT-1080),HT.atoc (AUC) (HT-1080),HT.bCarotene (AUC) (HT-1080),HT.deferox (AUC) (HT-1080),HT.digoxin (AUC) (HT-1080),HT.trolox (AUC) (HT-1080),other results
C(=N\Nc1nc2ccccc2s1)/c1ccccn1 [CIL52],0.03417,0.07379,−0.01302,−0.06719,0.008582,0.1474,0.4155,0.05641,−0.0133,0.09078,−0.006922,−0.009412,0.02654,0.01945,−0.01196,0.07146,0.06784,0.2325,−0.005506,−0.03942,"HT.zVAD (AUC) (HT-1080): 0.02339; effect of cobalt (II) on lethality (HT-1080): inhibited by cobalt (II); AUC, modulator BJ.3MA (BJeLR): 0.0119; AUC, modulator BJ.ALLN (BJeLR): 0.01092; AUC, modulator BJ.Boc D (BJeLR): 0.0184; AUC, modulator BJ.CHX (BJeLR): 0.03724; AUC, modulator BJ.Co2+ (BJeLR): 0.7978; AUC, modulator BJ.DPQ (BJeLR): 0.03648; AUC, modulator BJ.Gd3+ (BJeLR): 0.08327; AUC, modulator BJ.LNAME (BJeLR): −0.01578; AUC, modulator BJ.Lmin/NAD+ (BJeLR): 0.08265; AUC, modulator BJ.Lmin (BJeLR): 0.007783; AUC, modulator BJ.NAD+ (BJeLR): 0.09321; AUC, modulator BJ.NMMA (BJeLR): −0.006118; AUC, modulator BJ.Nec-1 (BJeLR): 0.03888; AUC, modulator BJ.Pepstatin (BJeLR): 0.02196; AUC, modulator BJ.TLCK (BJeLR): 0.284; binding to cobalt (II) in vitro [1]: bound to cobalt (II) in vitro"
C/C(=N\Nc1ncc(Cl)cc1Cl)c1ccccn1 [CIL64],0.1979,0.04802,−0.1469,−0.3128,−0.1078,0.06685,0.4161,0.08661,−0.135,0.1842,−0.0263,<0.2159,−0.2705,−0.1971,−0.1742,−0.06249,0.1654,0.127,0.0348,−0.08079,"HT.zVAD (AUC) (HT-1080): 0.05557; effect of cobalt (II) on lethality (HT-1080): inhibited by cobalt (II); AUC, modulator BJ.3MA (BJeLR): 0.02465; AUC, modulator BJ.ALLN (BJeLR): 0.0142; AUC, modulator BJ.Boc D (BJeLR): 0.01108; AUC, modulator BJ.CHX (BJeLR): 0.04712; AUC, modulator BJ.Co2+ (BJeLR): 0.9402; AUC, modulator BJ.DPQ (BJeLR): 0.009397; AUC, modulator BJ.Gd3+ (BJeLR): 0.02721; AUC, modulator BJ.LNAME (BJeLR): 0.03249; AUC, modulator BJ.Lmin/NAD+ (BJeLR): 0.0757; AUC, modulator BJ.Lmin (BJeLR): 0.02777; AUC, modulator BJ.NAD+ (BJeLR): 0.1422; AUC, modulator BJ.NMMA (BJeLR): 0.001966; AUC, modulator BJ.Nec-1 (BJeLR): 0.05533; AUC, modulator BJ.Pepstatin (BJeLR): 0.04262; AUC, modulator BJ.TLCK (BJeLR): 0.06508; binding to cobalt (II) in vitro [1]: bound to cobalt (II) in vitro"
